# Data published in PubChem BioAssay (NCI).
#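 Five concentrations, 48 hours, 96-well plates. At the GI50, growth is halved. The concentration for full growth arrest is given as TGI.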
# Experiments:
# Assay in all cases: NCI tumour cell line growth inhibition, 48 h
# OVCAR-4 ovarian = test system: OVCAR-4 ovarian
# RPMI-8226 leukemia = test system: RPMI-8226 leukemia
# U251 CNS = test system: U251 CNS
# MALME-3M melanoma = test system: MALME-3M melanoma
# NCI-H226 lung = test system: NCI-H226 lung
# CAKI-1 renal = test system: CAKI-1 renal
# SF-295 CNS = test system: SF-295 CNS
# NCI-H522 lung = test system: NCI-H522 lung
# MOLT-4 leukemia = test system: MOLT-4 leukemia
# OVCAR-3 ovarian = test system: OVCAR-3 ovarian
# DU-145 prostate = test system: DU-145 prostate
# MDA-MB-468 breast = test system: MDA-MB-468 breast
# UACC-62 melanoma = test system: UACC-62 melanoma
# SK-OV-3 ovarian = test system: SK-OV-3 ovarian
# KM12 colon = test system: KM12 colon
# HS 578T breast = test system: HS 578T breast
# OVCAR-8 ovarian = test system: OVCAR-8 ovarian
# HOP-92 NSCLC = test system: HOP-92 NSCLC
# HCT-15 colon = test system: HCT-15 colon
# HT29 colon = test system: HT29 colon
# SW-620 colon = test system: SW-620 colon
# SF-268 CNS = test system: SF-268 CNS
# SK-MEL-28 melanoma = test system: SK-MEL-28 melanoma
# BT-549 breast = test system: BT-549 breast
# SN12C renal = test system: SN12C renal
# EKVX NSCLC = test system: EKVX NSCLC
# 786-0 renal = test system: 786-0 renal
# COLO 205 colon = test system: COLO 205 colon
# SK-MEL-5 melanoma = test system: SK-MEL-5 melanoma
# HCT-116 colon = test system: HCT-116 colon
# SR leukemia = test system: SR leukemia
# K-562 leukemia = test system: K-562 leukemia
# ACHN renal = test system: ACHN renal
# HL-60(TB) leukemia = test system: HL-60(TB) leukemia
# SNB-19 CNS = test system: SNB-19 CNS
# M14 melanoma = test system: M14 melanoma
# NCI-H23 lung = test system: NCI-H23 lung
# PC-3 prostate = test system: PC-3 prostate
# A498 renal = test system: A498 renal
# TK-10 renal = test system: TK-10 renal
# HCC-2998 colon = test system: HCC-2998 colon
# IGROV1 ovarian = test system: IGROV1 ovarian
# RXF 393 renal = test system: RXF 393 renal
# MDA-MB-435 = test system: MDA-MB-435
# T-47D breast = test system: T-47D breast
# CCRF-CEM leukemia = test system: CCRF-CEM leukemia
# MCF7 breast = test system: MCF7 breast
# HOP-62 NSCLC = test system: HOP-62 NSCLC
# SF-539 CNS = test system: SF-539 CNS
# LOX IMVI melanoma = test system: LOX IMVI melanoma
# NCI-H460 lung = test system: NCI-H460 lung
# SK-MEL-2 melanoma = test system: SK-MEL-2 melanoma
# UACC-257 melanoma = test system: UACC-257 melanoma
# A549 NSCLC = test system: A549 NSCLC
# UO-31 renal = test system: UO-31 renal
# MDA-MB-231 breast = test system: MDA-MB-231 breast
structure (smiles),measurement,setting,value
COc1cc(/C=C/C(=O)c2cnn(-c3cc(=O)[nH]c4ccccc34)c2C)cc(OC)c1OC,GI50,OVCAR-4 ovarian,5.48 µM
same,TGI,OVCAR-4 ovarian,> 100 µM
same,GI50,RPMI-8226 leukemia,2.99 µM
same,TGI,RPMI-8226 leukemia,> 100 µM
same,GI50,U251 CNS,2.74 µM
same,TGI,U251 CNS,13.6 µM
same,GI50,MALME-3M melanoma,5.84 µM
same,TGI,MALME-3M melanoma,> 100 µM
same,GI50,NCI-H226 lung,5.24 µM
same,TGI,NCI-H226 lung,47.8 µM
same,GI50,CAKI-1 renal,4.05 µM
same,TGI,CAKI-1 renal,> 100 µM
same,GI50,SF-295 CNS,2.95 µM
same,TGI,SF-295 CNS,18.1 µM
same,GI50,NCI-H522 lung,3.74 µM
same,TGI,NCI-H522 lung,39.8 µM
same,GI50,MOLT-4 leukemia,3.28 µM
same,TGI,MOLT-4 leukemia,> 100 µM
same,GI50,OVCAR-3 ovarian,3.57 µM
same,TGI,OVCAR-3 ovarian,> 100 µM
same,GI50,DU-145 prostate,4.21 µM
same,TGI,DU-145 prostate,> 100 µM
same,GI50,MDA-MB-468 breast,2.22 µM
same,TGI,MDA-MB-468 breast,6.06 µM
same,GI50,UACC-62 melanoma,5.18 µM
same,TGI,UACC-62 melanoma,20.5 µM
same,GI50,SK-OV-3 ovarian,5.03 µM
same,TGI,SK-OV-3 ovarian,35.9 µM
same,GI50,KM12 colon,3.83 µM
same,TGI,KM12 colon,> 100 µM
same,GI50,HS 578T breast,4.54 µM
same,TGI,HS 578T breast,> 100 µM
same,GI50,OVCAR-8 ovarian,2.11 µM
same,TGI,OVCAR-8 ovarian,5.09 µM
same,GI50,HOP-92 NSCLC,7.59 µM
same,TGI,HOP-92 NSCLC,51.8 µM
same,GI50,HCT-15 colon,3.23 µM
same,TGI,HCT-15 colon,26.1 µM
same,GI50,HT29 colon,3.14 µM
same,TGI,HT29 colon,> 100 µM
same,GI50,SW-620 colon,3.59 µM
same,TGI,SW-620 colon,> 100 µM
same,GI50,SF-268 CNS,4.26 µM
same,TGI,SF-268 CNS,> 100 µM
same,GI50,SK-MEL-28 melanoma,4.94 µM
same,TGI,SK-MEL-28 melanoma,> 100 µM
same,GI50,BT-549 breast,3.48 µM
same,TGI,BT-549 breast,24.9 µM
same,GI50,SN12C renal,2.2 µM
same,TGI,SN12C renal,8.36 µM
same,GI50,EKVX NSCLC,3.42 µM
same,TGI,EKVX NSCLC,> 100 µM
same,GI50,786-0 renal,4.56 µM
same,TGI,786-0 renal,28.9 µM
same,GI50,COLO 205 colon,3.71 µM
same,TGI,COLO 205 colon,17.5 µM
same,GI50,SK-MEL-5 melanoma,3.51 µM
same,TGI,SK-MEL-5 melanoma,14.7 µM
same,GI50,HCT-116 colon,7.13 µM
same,TGI,HCT-116 colon,> 100 µM
same,GI50,SR leukemia,3.82 µM
same,TGI,SR leukemia,> 100 µM
same,GI50,K-562 leukemia,2.68 µM
same,TGI,K-562 leukemia,> 100 µM
same,GI50,ACHN renal,3.72 µM
same,TGI,ACHN renal,25.5 µM
same,GI50,HL-60(TB) leukemia,3.52 µM
same,TGI,HL-60(TB) leukemia,> 100 µM
same,GI50,SNB-19 CNS,5.23 µM
same,TGI,SNB-19 CNS,> 100 µM
same,GI50,M14 melanoma,4.45 µM
same,TGI,M14 melanoma,> 100 µM
same,GI50,NCI-H23 lung,2.66 µM
same,TGI,NCI-H23 lung,7.98 µM
same,GI50,PC-3 prostate,7.39 µM
same,TGI,PC-3 prostate,> 100 µM
same,GI50,A498 renal,34.2 µM
same,TGI,A498 renal,> 100 µM
same,GI50,TK-10 renal,4.62 µM
same,TGI,TK-10 renal,> 100 µM
same,GI50,HCC-2998 colon,4 µM
same,TGI,HCC-2998 colon,> 100 µM
same,GI50,IGROV1 ovarian,3 µM
same,TGI,IGROV1 ovarian,16.3 µM
same,GI50,RXF 393 renal,2.65 µM
same,TGI,RXF 393 renal,8.21 µM
same,GI50,MDA-MB-435,3.34 µM
same,TGI,MDA-MB-435,> 100 µM
same,GI50,T-47D breast,2.8 µM
same,TGI,T-47D breast,> 100 µM
same,GI50,CCRF-CEM leukemia,2.58 µM
same,TGI,CCRF-CEM leukemia,21.5 µM
same,GI50,MCF7 breast,2.88 µM
same,TGI,MCF7 breast,> 100 µM
same,GI50,HOP-62 NSCLC,4.43 µM
same,TGI,HOP-62 NSCLC,27.1 µM
same,GI50,SF-539 CNS,2.01 µM
same,TGI,SF-539 CNS,4.84 µM
same,GI50,LOX IMVI melanoma,2.1 µM
same,TGI,LOX IMVI melanoma,5.64 µM
same,GI50,NCI-H460 lung,2.55 µM
same,TGI,NCI-H460 lung,7.29 µM
same,GI50,SK-MEL-2 melanoma,2.89 µM
same,TGI,SK-MEL-2 melanoma,10.2 µM
same,GI50,UACC-257 melanoma,7.03 µM
same,TGI,UACC-257 melanoma,> 100 µM
same,GI50,A549 NSCLC,3.78 µM
same,TGI,A549 NSCLC,> 100 µM
same,GI50,UO-31 renal,4.03 µM
same,TGI,UO-31 renal,37.1 µM
same,GI50,MDA-MB-231 breast,3.06 µM
same,TGI,MDA-MB-231 breast,14.1 µM
